Test system: arachidonic acid induced mouse ear inflammation
Test: arachidonic acid induced mouse ear inflammation test (MPO as index of neutrophil accumulation)
Format: in vivo, mice
Conditions: for maximum inhibitory effect: group5; for effect on arachidonic acid induced ear inflammation in mice (in words): single compounds, oral administration
Procedure: Female albino mice (Han:NMRI) obtained from Interfauna and weighing about 20-25 g were used. The animals were provided with standardised pellet diet (Altromin 8013) and had tap water freely available. The animals were accommodated in a climatized room with a 12 hours light/dark cycle and kept in groups.
The compound of formula IA and meloxicam were administered orally (0.2 ml/10 g bw) 30 min. before arachidonic acid challenge. Meloxicam was given twice: one dose 16 hours and the second dose 30 minutes before challenge. For every day there was a concurrent control. Then number of animals per group was 7. The study compounds were suspended in 1% methylcellulose (Tylose MH 300, Fluka, CH-9470 Buchs). The experiment was run in five groups. Every group contained one control, two doses of meloxicam, two doses of (IA), and one dose of the combination of the two compounds.
Mice were lightly anesthetized by ether and 1 mg arachidonic acid (10 μl) was applied to each side of the left ear. […] The animals were sacrificed by ether 6 hours later, and a biopsy (diameter 8 mm) was punched out from both ears to assess an increase of neutrophils in the left ear compared with the right ear. Tissue samples were homogenized in 1 ml 0.5% HTAB (Hexadecyl-trimethyl-ammonium-bromide; Sigma H-5882; solved in 0.05 M phosphate buffer, pH 6.0) using a tissue homogenizer (IKA-Ultraturrax T5; Janke & Kunkel, Staufen/Breisgau) at 30000 RPM for 15 seconds. After centrifugation (16000 G, 5 min) the supernatants were frozen until processing for myeloperoxidase (MPO). Determination in the supernatants for MPO, a neutrophil marker enzyme, served as a quantitative index for the neutrophil accumulation.
MPO was determined spectrophotometrically at 450 nm using a micro plate version of the method of Bradley (1982) and a micro plate reader (Vmax; Molecular Devices, Palo Alto) suitable for kinetic measurements and expressed as mean optical density per minute.
For each individual the response myeloperoxidase activity (MPO) in optical density per minute (oD/min) was measured.
For the comparisons the nonparametric statistical methods Kruskal-Wallis-One-Way-ANOVA and the Wilcoxon-Two-Sample-Test (2 sided) have been used. For the first and last comparisons also Bonferroni-Holm adjusted p-values have been calculated.

Row | Structure (SMILES) | maximum inhibitory effect (supra-maximum doses 16 and 32 mg/kg p.o.) | effect on arachidonic acid induced ear inflammation in mice (in words) | maximum inhibitory effect (supra-maximum doses 0.8 and 1.6 mg/kg p.o.)
1 | Cc1cnc(NC(=O)C2=C(O)c3ccccc3S(=O)(=O)N2C)s1 [Meloxicam, meloxicam] | 37% | inhibited arachidonic acid induced ear inflammation in mice | 
2 | CCOC(=O)N=C(N)c1ccc(OCc2cccc(COc3ccc(C(C)(C)c4ccc(O)cc4)cc3)c2)cc1 |  | inhibited arachidonic acid induced ear inflammation in mice | 66%

Source: US20040116516A1 (Boehringer Ingelheim Pharma GmbH & Co. KG, priority 2002, published 2004)
